Where two headings read alike, the source gives them in different places.
How the values were obtained:
[1] = molecular target: USP7 (Homo sapiens, UniProt Q93009); test: biochemical
[2] = molecular target: T1, USP1 (Homo sapiens, UniProt O94782); test: selectivity panel of […] purified DUBs, ubiquitin-AMC substrate; ABPP DUBome; format: biochemical
T1 sequence (O94782 1-785): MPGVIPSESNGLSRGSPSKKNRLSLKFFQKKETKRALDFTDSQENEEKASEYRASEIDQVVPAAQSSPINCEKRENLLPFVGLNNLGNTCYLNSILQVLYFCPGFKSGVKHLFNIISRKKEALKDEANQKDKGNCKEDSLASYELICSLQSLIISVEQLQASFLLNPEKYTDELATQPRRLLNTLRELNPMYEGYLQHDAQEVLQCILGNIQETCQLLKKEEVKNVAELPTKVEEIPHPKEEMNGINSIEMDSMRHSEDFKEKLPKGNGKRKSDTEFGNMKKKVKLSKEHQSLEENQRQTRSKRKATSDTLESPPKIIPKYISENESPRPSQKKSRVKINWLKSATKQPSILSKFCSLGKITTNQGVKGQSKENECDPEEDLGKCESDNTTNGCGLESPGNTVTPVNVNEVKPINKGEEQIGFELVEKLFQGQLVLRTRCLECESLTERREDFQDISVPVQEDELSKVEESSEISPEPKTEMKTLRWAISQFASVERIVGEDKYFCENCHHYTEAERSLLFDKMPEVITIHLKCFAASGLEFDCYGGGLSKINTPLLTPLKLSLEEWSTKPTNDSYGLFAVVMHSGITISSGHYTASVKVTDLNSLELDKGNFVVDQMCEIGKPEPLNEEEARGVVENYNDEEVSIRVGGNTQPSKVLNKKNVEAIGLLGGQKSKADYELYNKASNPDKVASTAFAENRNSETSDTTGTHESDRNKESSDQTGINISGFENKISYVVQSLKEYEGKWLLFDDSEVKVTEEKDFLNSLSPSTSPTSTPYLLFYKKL

[3] = molecular target: USP11 (Homo sapiens, UniProt P51784); test: as above; format: biochemical
Chain of USP11 (P51784 whole entry): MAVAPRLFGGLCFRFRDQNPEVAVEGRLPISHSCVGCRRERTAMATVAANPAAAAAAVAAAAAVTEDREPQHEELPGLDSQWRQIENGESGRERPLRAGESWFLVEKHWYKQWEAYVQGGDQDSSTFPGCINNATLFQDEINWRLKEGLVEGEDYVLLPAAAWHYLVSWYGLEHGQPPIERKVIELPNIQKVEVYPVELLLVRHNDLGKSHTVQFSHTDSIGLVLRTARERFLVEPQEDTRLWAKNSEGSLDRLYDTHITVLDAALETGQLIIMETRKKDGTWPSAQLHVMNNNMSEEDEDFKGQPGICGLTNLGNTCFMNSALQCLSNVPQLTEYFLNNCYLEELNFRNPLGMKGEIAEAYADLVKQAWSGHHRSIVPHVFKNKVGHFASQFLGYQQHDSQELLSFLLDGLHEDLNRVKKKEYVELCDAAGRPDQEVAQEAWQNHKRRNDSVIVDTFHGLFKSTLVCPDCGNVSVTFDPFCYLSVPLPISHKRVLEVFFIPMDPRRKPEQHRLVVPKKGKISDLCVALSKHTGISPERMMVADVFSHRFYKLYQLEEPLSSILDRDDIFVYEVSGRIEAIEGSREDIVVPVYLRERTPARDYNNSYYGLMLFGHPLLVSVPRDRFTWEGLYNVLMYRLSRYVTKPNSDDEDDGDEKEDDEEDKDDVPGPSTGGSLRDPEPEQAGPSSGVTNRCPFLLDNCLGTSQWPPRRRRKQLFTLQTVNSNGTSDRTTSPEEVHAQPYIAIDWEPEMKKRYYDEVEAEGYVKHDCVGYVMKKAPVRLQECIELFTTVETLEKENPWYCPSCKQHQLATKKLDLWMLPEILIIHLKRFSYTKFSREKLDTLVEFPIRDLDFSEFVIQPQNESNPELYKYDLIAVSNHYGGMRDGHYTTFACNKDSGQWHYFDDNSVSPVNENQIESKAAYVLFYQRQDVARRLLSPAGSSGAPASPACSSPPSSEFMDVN

[4] = molecular target: USP2 (Homo sapiens, UniProt O75604); test: selectivity panel of […] purified DUBs, ubiquitin-AMC substrate; format: biochemical
Chain of USP2 (O75604 whole entry): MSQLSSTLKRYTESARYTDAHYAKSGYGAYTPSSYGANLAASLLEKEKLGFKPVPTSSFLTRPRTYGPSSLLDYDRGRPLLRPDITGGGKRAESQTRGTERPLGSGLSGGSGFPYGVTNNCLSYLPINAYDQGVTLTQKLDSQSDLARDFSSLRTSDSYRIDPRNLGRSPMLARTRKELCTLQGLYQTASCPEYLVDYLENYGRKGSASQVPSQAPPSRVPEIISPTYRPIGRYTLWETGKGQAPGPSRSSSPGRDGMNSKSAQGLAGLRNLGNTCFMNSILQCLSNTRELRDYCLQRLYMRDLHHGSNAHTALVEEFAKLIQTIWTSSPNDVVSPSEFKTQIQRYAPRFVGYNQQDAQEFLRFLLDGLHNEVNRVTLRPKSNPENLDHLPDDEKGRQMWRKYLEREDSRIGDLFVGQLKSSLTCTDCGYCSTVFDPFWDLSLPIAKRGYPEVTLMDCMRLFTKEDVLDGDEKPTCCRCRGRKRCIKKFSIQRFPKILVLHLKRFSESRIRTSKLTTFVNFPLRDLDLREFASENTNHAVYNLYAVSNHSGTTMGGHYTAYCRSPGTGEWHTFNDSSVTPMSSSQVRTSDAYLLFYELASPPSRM

Chain of USP7 (Q93009 whole entry): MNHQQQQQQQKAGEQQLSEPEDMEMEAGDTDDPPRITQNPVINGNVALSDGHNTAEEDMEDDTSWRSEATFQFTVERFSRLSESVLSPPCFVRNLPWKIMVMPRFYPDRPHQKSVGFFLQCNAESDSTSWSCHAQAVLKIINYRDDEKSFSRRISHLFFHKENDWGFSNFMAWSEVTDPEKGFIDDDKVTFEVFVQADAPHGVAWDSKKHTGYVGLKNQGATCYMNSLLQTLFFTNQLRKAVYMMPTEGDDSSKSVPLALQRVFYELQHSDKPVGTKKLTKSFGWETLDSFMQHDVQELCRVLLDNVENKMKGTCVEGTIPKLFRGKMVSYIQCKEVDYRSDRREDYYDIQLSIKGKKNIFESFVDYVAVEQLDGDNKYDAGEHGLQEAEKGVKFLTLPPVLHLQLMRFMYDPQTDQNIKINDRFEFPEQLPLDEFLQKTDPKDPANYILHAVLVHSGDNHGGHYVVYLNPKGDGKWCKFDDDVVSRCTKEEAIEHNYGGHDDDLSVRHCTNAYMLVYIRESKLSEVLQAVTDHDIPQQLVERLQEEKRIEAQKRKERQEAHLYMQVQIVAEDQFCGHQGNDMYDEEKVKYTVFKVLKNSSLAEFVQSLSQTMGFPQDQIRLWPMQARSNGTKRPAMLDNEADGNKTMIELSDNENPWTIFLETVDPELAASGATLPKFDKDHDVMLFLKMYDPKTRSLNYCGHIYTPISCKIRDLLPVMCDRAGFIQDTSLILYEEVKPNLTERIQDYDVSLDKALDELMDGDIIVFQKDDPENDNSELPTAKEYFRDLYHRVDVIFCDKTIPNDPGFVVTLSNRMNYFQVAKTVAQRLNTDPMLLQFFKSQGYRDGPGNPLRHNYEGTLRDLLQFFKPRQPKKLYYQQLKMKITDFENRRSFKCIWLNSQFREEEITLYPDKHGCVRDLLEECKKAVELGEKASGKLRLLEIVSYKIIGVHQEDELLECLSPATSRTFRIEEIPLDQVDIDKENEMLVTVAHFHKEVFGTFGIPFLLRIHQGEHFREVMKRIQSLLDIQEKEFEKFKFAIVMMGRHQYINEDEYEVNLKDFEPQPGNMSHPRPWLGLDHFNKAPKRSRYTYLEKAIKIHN

SMILES | IC50 [1] [nM] | selectivity panel of 41 purified DUBs, ubiquitin-AMC substrate; ABPP DUBome [2] | selectivity panel of 41 purified DUBs, ubiquitin-AMC substrate; ABPP DUBome [3] | selectivity panel of 41 purified DUBs, ubiquitin-AMC substrate [4] | IC50 ([1]; read-out: IC50) [nM]
O=C(C[C@@H](C(F)F)n1ccc(F)n1)N1CCC(O)(Cn2cnc3c(cnn3-c3ccc(F)cc3)c2=O)CC1 [FT671] | 286 |  |  |  | 
Cc1ccc(/C=C2\CNC/C(=C\c3ccc(C)cc3)C2=O)cc1 [NSC632839] |  | This screening identified USP7, USP11, USP2, and USP1 as the key targets. | This screening identified USP7, USP11, USP2, and USP1 as the key targets. | This screening identified USP7, USP11, USP2, and USP1 as the key targets. | 3820
